This is an account of results in US7468421B2, “Depilatories and agents for external use” (Kao Corporation, priority 1999, dated 2008).

Where no end group is shown, it is not given here.

Test [1] deals with hair follicle organs in growth phase from a human scalp tissue. The test is described as follows: Growth inhibitory effects on organ-cultured hair follicles. It counts as cell-based. Here is the method:
From a human scalp tissue, hair follicle organs in growth phase were surgically isolated under a stereomicroscope. Following a conventional procedure [Philpott M. P., et al., J. Cell Sci., 97, 463-471 (1990)], the isolated hair follicles were subjected to organ culture. Described specifically, endothelin-1 was added to William's E medium which contained L-glutamine (2 mM), hydrocortisone (10 ng/mL), insulin (10 μg/mL), sodium selenite (10 ng/mL) and transferrin (10 μg/mL).

Test [2] has as its system dorsal part of a guinea pig. The test is described as follows: Depilation inducing effects of endothelin, intracutaneous administration. It is filed as in vivo. Conditions: 0.3 μg intracutaneously, 50 μL/site, 10 days after the administration. How it is done: A solution of endothelin-1 (0.3 μg) in phosphate buffer solution (PBS), which contained 0.1% of bovine serum albumin (BSA), was intracutaneously administered (at 50 μL/site) to the dorsal part of a guinea pig.

Test [3] has as its system growth-phase hair follicles. The test is described as follows: Growth-phase hair follicle inhibitory effects of endothelin, count of hair shafts. Conditions: 1 μg intracutaneously, 50 μL/site, fifth day after the administration. It is filed as in vivo, guinea pig. How it is done: Solutions (1 μg, each) of endothelin-1, endothelin-2 and endotherin-3 in aliquots of phosphate buffer solution (PBS), which contained 0.1% of bovine serum albumin (BSA), were intracutaneously administered (at 50 μL/site) to the dorsal parts of guinea pigs, respectively, from which hair had been cut off by a hair clipper. Three days after the administration, hair was again cut off by a hair clipper from the administered sites. Two days after the cutting, the numbers of hair shafts grown per unit area at the administered sites were counted.

Test [4] has as its system C3H/HeNCrj mouse. Kind of test: Hair growth test in mice. It counts as in vivo. Conditions: 0.5 mg in 2.5 mL PEG 400/PEG 3350 (95/5), 25 μL/application once a day over 2 weeks, applied to depilated dorsal skin. How it is done:
Endothelin-1 (0.5 mg) was dissolved in a mixed solution (2.5 mL) of polyethylene glycol 400 (average molecular weight: 400) and polyethylene glycol 3350 (average molecular weight: 3,350) (mixing ratio: 95/5) to prepare a hair growth inhibitor. Dorsal hair of each 8-week old C3H/HeNCrj mouse was removed with a depilatory cream (over an area of 2×4 cm^2), and the hair growth inhibitor was applied to the depilated site once a day at a dose of 25 μL/application over 2 weeks. A group in which only the solvent was similarly applied was employed as a control group. To observe regrowth of hair, the above-described depilated site on day 14 after the depilation was photographed at a predetermined fixed magnification, and the percentage of a regrown hair area (regrown hair area/depilated area×100) was determined using an image analyzer.

For test [5], the system named is growth-phase hair follicle. Kind of test: Structural changes of hair follicle structure by the administration of endothelin, hematoxylin-eosin staining. It counts as in vivo, guinea pig. Conditions: 0.3 μg intracutaneously. How it is done: A solution of endothelin-1 (0.3 μg) in phosphate buffer solution (PBS), which contained 1.1% of bovine serum albumin (BSA), was intracutaneously administered (at 50 μL/site) to the dorsal part of a guinea pig. After that, samples were collected day after day from the administered dorsal skin, and tissue samples were prepared by hematoxylin-eosin staining.

Test [6] relates to endothelin-induced depilation spot. The test is described as follows: Concurrent administration of endothelin inhibitor on the endothelin-induced formation of depilation spot. As to conditions: 10 days after the administration; endothelin-1 0.3 μg, PD142893 10 μg, intracutaneous. It counts as in vivo, guinea pig. How it is done: As described in Example 1, endothelin (0.3 μg) was intracutaneously administered to the dorsal part of each guinea pig, and PD142893 (10 μg) as an endothelin inhibitor was also administered concurrently.
The size of a depilation spot formed 10 days after the administration was determined in terms of a product of its long diameter and short diameter.

In the case of `CC[C@H](C)[C@H](NC(=O)[C@H](CC(=O)O)NC(=O)[C@H](CC(C)C)NC(=O)[C@H](Cc1c[nH]cn1)NC(=O)[C@@H]1CSSC[C@H](N)C(=O)N[C@@H](CO)C(=O)N[C@H]2CSSC[C@H](NC(=O)[C@H](CCC(=O)O)NC(=O)[C@H](CCCCN)NC(=O)[C@H](CC(=O)O)NC(=O)[C@H](CCSC)NC(=O)[C@H](CC(C)C)NC(=O)[C@H](CO)NC(=O)[C@H](CO)NC2=O)C(=O)N[C@@H](C(C)C)C(=O)N[C@@H](Cc2ccc(O)cc2)C(=O)N[C@@H](Cc2ccccc2)C(=O)N1)C(=O)N[C@H](C(=O)N[C@@H](Cc1c[nH]c2ccccc12)C(=O)O)[C@@H](C)CC` [Endothelin-1, endothelin-1], the “percent regression of growth-phase hair follicles” value in test [1] (10 ng/mL added endothelin, Day 1 of incubation) is 0.0%; in test [1] (10 ng/mL added endothelin, Day 2 of incubation), 0.0%; in test [1] (10 ng/mL added endothelin, Day 4 of incubation) it was 17.6%; in test [1] (10 ng/mL added endothelin, Day 6 of incubation) it was 35.3%; in test [1] (100 ng/mL added endothelin, Day 1 of incubation), 0.0%; in test [1] (100 ng/mL added endothelin, Day 2 of incubation), 0.0%. Moreover, the “percent regression of growth-phase hair follicles” value is recorded as 23.5% in test [1] (100 ng/mL added endothelin, Day 4 of incubation) and 41.2% in test [1] (100 ng/mL added endothelin, Day 6 of incubation). For the same compound, the “grown hair follicle lengths compared with control group” value in test [1] (day 4 of incubation and the subsequent days (FIG. 3)) was “significant hair growth inhibitory effects”. Also, in test [1] (during the incubation period (FIG. 4)), the “structural change of incubated hair follicles” value is listed as “structural change of the endothelin-treated, growth-phase hair follicles into those similar to resting-phase hair follicles”. The “observation at the administered site (depilation)” value in test [2] is “hair shaft falling-off and formation of a marked depilation spot”. In addition, the “number of hair shafts grown per unit area at the administered site” value in test [3] is “significant (p<0.01) decrease in the number of hair shafts”. The “Percentage of regrown hair area on day 14 after depilation” value in test [4] was determined as 2.22%. For the same compound, the “histological image of hair follicle” value in test [5] (1st day after the administration) is recorded as “regressed image of a growth-phase hair follicle”; in test [5] (3rd day after the administration) it was “image of a follicular tissue in transition phase”. Also, the “Product of long diameter and short diameter of depilation spot (mean ± S.D., N = 6)” value in test [6] is 81.47 ± 6.53 mm^2.

In the case of “endothelin-2 (CSCSSWLDKECVYFCHLDIIW; ends and bridges not checked; cysteine pairing not given here; UniProt P20800 49-69, looked up) [peptide composed of 21 amino acid residues; isoform of endothelin]”, the “number of hair shafts grown per unit area at the administered site” value in test [3] is recorded as “significant (p<0.01) decrease in the number of hair shafts”.

For “endothelin-3 (CTCFTYKDKECVYYCHLDIIW; ends and bridges not checked; cysteine pairing not given here; UniProt P14138 97-117, looked up) [endotherin-3, peptide composed of 21 amino acid residues; isoform of endothelin]”, the “number of hair shafts grown per unit area at the administered site” value in test [3] is on record as “significant (p<0.01) decrease in the number of hair shafts”.
